# Assay results: US20150305333A1, “USE OF GLUCOSAMINE AMIDES AS PLANT GROWTH AND YIELD ENHANCERS” (PIONEER HI-BRED INTERNATIONAL, INC., priority 2012, published 2015)
# Legend:
# Assay type in all cases: in vivo
# [1] = test system: spring wheat (Triticum aestivum); test: Spring wheat field trial 2011: emergence, vigor, tillering, biomass, yield; conditions: for Spring Wheat Crop Vigor (1-5 scale): vigor scale of Example 3; for Spring Wheat Biomass: 82 DAP, aerial portion
# Experimental: A field trial was conducted to evaluate the effects of NPG on plant emergence, vigor, tillering, biomass and yield in spring wheat (Triticum aestivum) planted near Breslau, Ontario, Canada, in 2011. Seed treatments included an Untreated Control, 10^−7 M NPG applied as a seed treatment, 10^−7 M NPG followed by two foliar NPG applications, 10^−6 M natural LCO, and 10^−6 M commercial LCO plus a commercial rhizobia inoculant (LCO+RI). The natural LCO was provided by Dr. Don Smith (McGill University, Montreal, Canada) and prepared as described in Example 2. Seed coating was performed by injecting 7 mL of aqueous NPG solution per 100 g wheat seed into a coating machine followed by treatment and drying. […] Seed designated for use as the Untreated Check also received the fungicide maintenance treatment.
# Treated seeds were sent to the DuPont Breslau, Ontario Research Station and planted on June 8th in a loam composed of 34% sand, 48% silt and 18% clay and 2.9% organic matter. […] Spring wheat was planted at a rate of 100 kg seeds/ha to a depth of 3 cm. Weeds were controlled using 8.79 wt % fenoxyprop-P-ethyl at a rate of 770 mL/ha and a mixture of 33.33 wt % thifensulfuron methyl and 16.67 wt % tribenuron methyl at a rate of 30 g/ha. Disease was controlled using 23.6 wt % pyraclostrobin fungicide at a rate of 0.4 L/ha. All of the products used are considered industry standards and representative of what is used in commercial production.
# The trial was conducted using a randomized complete block design with a plot size of 2.5 m by 8 m with 17.8 cm row spacing, 3.3 cm plant spacing and four replications.
# Foliar NPG applications were performed 36 and 49 days after planting. The treatments were sprayed using a 4 nozzle hollow-cone boom and CO2 propellant at a speed of 4.5 km/h and 40 psi. The 36 day application utilized a mix size of 2.0 L and spray rate of 200 L/ha water volume. The 49 day application utilized a mix size of 3.0 L and spray rate of 300 L/ha water volume.
# Plant Biomass was determined at 82 DAP by harvesting the entire aerial portion of the plants from each plot (Table 17). A non-statistically significant increase in biomass was determined for the NPG, LCO+RI, and LCO treatments compared to the Untreated Control.
# Yield was determined by harvesting the entire 8 m of the plot and transforming the data to kg/ha (Table 18). Yields are not corrected for differences in emergence rates.
# corn seeds = test: Petri dish seed germination assay, corn
# Experimental: (§1) A series of Petri dish seed assays was conducted to evaluate the effects NPG on the seed germination rates of corn, soybean, and canola seeds subjected to cold stress, salt stress and non-stressed conditions (salt stress only for canola). Assays were performed with ten replications of ten seeds/plate (100 total seeds). NPG was applied to seeds at the specified concentrations prior to being placed in Petri plates. Seeds designated for Salt Stress Experiments 1 & 2 were placed in Petri dishes containing a 100 mM NaCl solution and incubated at 21° C.-22° C. in the dark. Cold stress Petri dishes were incubated at 15° C. in the dark. Untreated Controls were incubated at 21° C.-22° C. in the dark as were seeds utilized in the separately conducted non-stressed germination assays. Data was recorded as percent germination at designated times after plating. Statistical analyses were performed using one-way Anova and Kruskal-Wallis one-way analysis of variance on rank combined with Dunn's all pairwise multiple comparison procedure (α=0.05).
# soybean seeds = test: Petri dish seed germination assay, soybean
# Experimental: as §1
# [2] = 10^−7M seed treatment + Foliar, 35 DAP
smiles,measurement,setting,value
"CCCCCCC=CCCCCCCCC(=O)NC1C(OC)OC(CO)C(O)C1O [NPG, Methyl 2-deoxy-2-N-(hexadece-9,10-cis-eneoyl)-β-D-glucopyranoside]",Spring Wheat Yield,[1]; 10^−7M seed treatment,1100a kg/ha
same,Spring Wheat Yield,[1]; 10^−7M seed treatment + Foliar,1188a kg/ha
same,Wheat Crop Emergence,"[1]; 10^−7M seed treatment + Foliar, 13 DAP",53a %
same,Spring Wheat Tillering,[1]; [2],8.0a tillers/plant
same,Wheat Crop Emergence,[1]; [2],100a %
same,Spring Wheat Crop Vigor (1-5 scale),[1]; [2],3.6a
same,Spring Wheat Crop Vigor (1-5 scale),"[1]; 10^−7M seed treatment + Foliar, 40 DAP",3.5b
same,Spring Wheat Crop Vigor (1-5 scale),"[1]; 10^−7M seed treatment + Foliar, 52 DAP",3.5a
same,Spring Wheat Biomass,[1]; 10^−7M seed treatment + Foliar,0.198a kg/plant
same,Wheat Crop Emergence,"[1]; 10^−7M seed treatment, 13 DAP",53a %
same,Spring Wheat Tillering,"[1]; 10^−7M seed treatment, 35 DAP",9.0a tillers/plant
same,Wheat Crop Emergence,"[1]; 10^−7M seed treatment, 35 DAP",100a %
same,Spring Wheat Crop Vigor (1-5 scale),"[1]; 10^−7M seed treatment, 35 DAP",3.4a
same,Spring Wheat Crop Vigor (1-5 scale),"[1]; 10^−7M seed treatment, 40 DAP",3.5b
same,Spring Wheat Crop Vigor (1-5 scale),"[1]; 10^−7M seed treatment, 52 DAP",3.4a
same,Spring Wheat Biomass,[1]; 10^−7M seed treatment,0.190a kg/plant
same,Corn Seed Germination,"corn seeds; Cold Stress (15° C.), 10^−6M, 48 HAP",13ab %
same,Corn Seed Germination,"corn seeds; Cold Stress (15° C.), 10^−6M, 56 HAP",52a %
same,Corn Seed Germination,"corn seeds; Cold Stress (15° C.), 10^−6M, 65 HAP",100%
same,Corn Seed Germination,"corn seeds; Cold Stress (15° C.), 10^−7M, 48 HAP",20ab %
same,Corn Seed Germination,"corn seeds; Cold Stress (15° C.), 10^−7M, 56 HAP",52a %
same,Corn Seed Germination,"corn seeds; Cold Stress (15° C.), 10^−7M, 65 HAP",100%
same,Corn Seed Germination,"corn seeds; Non-Stressed, 10^−6M, 28 HAP",34a %
same,Corn Seed Germination,"corn seeds; Non-Stressed, 10^−6M, 34 HAP",80a %
same,Corn Seed Germination,"corn seeds; Non-Stressed, 10^−6M, 44 HAP",100a %
same,Corn Seed Germination,"corn seeds; Salt Stress (100 mM NaCl) Experiment 2, 10^−6M, 32 HAP",20b %
same,Corn Seed Germination,"corn seeds; Salt Stress (100 mM NaCl) Experiment 2, 10^−6M, 42 HAP",90a %
same,Corn Seed Germination,"corn seeds; Salt Stress (100 mM NaCl) Experiment 2, 10^−7M, 32 HAP",44a %
same,Corn Seed Germination,"corn seeds; Salt Stress (100 mM NaCl) Experiment 2, 10^−7M, 42 HAP",87a %
same,Soybean Seed Germination,"soybean seeds; Cold Stress (15° C.), 10^−6M × 4 Times, 30 HAP",29a %
same,Soybean Seed Germination,"soybean seeds; Cold Stress (15° C.), 10^−6M × 4 Times, 36 HAP",58a %
same,Soybean Seed Germination,"soybean seeds; Cold Stress (15° C.), 10^−6M × 4 Times, 44 HAP",81a %
same,Soybean Seed Germination,"soybean seeds; Cold Stress (15° C.), 10^−6M × 4 Times, 50 HAP",90a %
same,Soybean Seed Germination,"soybean seeds; Cold Stress (15° C.), 10^−6M × 4 Times, 60 HAP",97a %
same,Soybean Seed Germination,"soybean seeds; Cold Stress (15° C.), 10^−6M, 30 HAP",26a %
same,Soybean Seed Germination,"soybean seeds; Cold Stress (15° C.), 10^−6M, 36 HAP",58a %
same,Soybean Seed Germination,"soybean seeds; Cold Stress (15° C.), 10^−6M, 44 HAP",80a %
same,Soybean Seed Germination,"soybean seeds; Cold Stress (15° C.), 10^−6M, 50 HAP",90a %
same,Soybean Seed Germination,"soybean seeds; Cold Stress (15° C.), 10^−6M, 60 HAP",96a %
same,Soybean Seed Germination,"soybean seeds; Cold Stress (15° C.), 10^−7M, 30 HAP",23a %
same,Soybean Seed Germination,"soybean seeds; Cold Stress (15° C.), 10^−7M, 36 HAP",51a %
same,Soybean Seed Germination,"soybean seeds; Cold Stress (15° C.), 10^−7M, 44 HAP",84a %
same,Soybean Seed Germination,"soybean seeds; Cold Stress (15° C.), 10^−7M, 50 HAP",91a %
same,Soybean Seed Germination,"soybean seeds; Cold Stress (15° C.), 10^−7M, 60 HAP",95a %
same,Soybean Seed Germination,"soybean seeds; Non-Stressed, 10^−6M × 4 Times, 27 HAP",72a %
same,Soybean Seed Germination,"soybean seeds; Non-Stressed, 10^−6M × 4 Times, 34 HAP",88a %
same,Soybean Seed Germination,"soybean seeds; Non-Stressed, 10^−6M × 4 Times, 45 HAP",94a %
same,Soybean Seed Germination,"soybean seeds; Non-Stressed, 10^−6M, 27 HAP",70a %
same,Soybean Seed Germination,"soybean seeds; Non-Stressed, 10^−6M, 34 HAP",93a %
same,Soybean Seed Germination,"soybean seeds; Non-Stressed, 10^−6M, 45 HAP",97a %
same,Soybean Seed Germination,"soybean seeds; Salt Stress (100 mM NaCl), 10^−6M × 4 Times, 27 HAP",17a %
same,Soybean Seed Germination,"soybean seeds; Salt Stress (100 mM NaCl), 10^−6M × 4 Times, 34 HAP",76ab %
same,Soybean Seed Germination,"soybean seeds; Salt Stress (100 mM NaCl), 10^−6M × 4 Times, 45 HAP",89ab %
same,Soybean Seed Germination,"soybean seeds; Salt Stress (100 mM NaCl), 10^−6M × 4 Times, 55 HAP",96a %
same,Soybean Seed Germination,"soybean seeds; Salt Stress (100 mM NaCl), 10^−6M × 4 Times, 65 HAP",99a %
same,Soybean Seed Germination,"soybean seeds; Salt Stress (100 mM NaCl), 10^−6M, 27 HAP",22a %
same,Soybean Seed Germination,"soybean seeds; Salt Stress (100 mM NaCl), 10^−6M, 34 HAP",73ab %
same,Soybean Seed Germination,"soybean seeds; Salt Stress (100 mM NaCl), 10^−6M, 45 HAP",83ab %
same,Soybean Seed Germination,"soybean seeds; Salt Stress (100 mM NaCl), 10^−6M, 55 HAP",95a %
same,Soybean Seed Germination,"soybean seeds; Salt Stress (100 mM NaCl), 10^−6M, 65 HAP",99a %
